Results published in US10799522B2, “Compositions and methods relating to galectin detection” (Wayne State University, priority 2015, dated 2020).

Test: radiation dosimetry estimates for human patients
Settings: adult male
[1] = target organ Urinary Bladder Wall

Question: Which results are given for `OCC1OC(SC2OC(CO)C(O)C(n3cc(-c4cccc([18F])c4)nn3)C2O)C(O)C(n2cc(-c3cccc(F)c3)nn2)C1O` [[^18F]FPTDG, 3-(3-[^18F]fluorophenyltriazolyl)-3-deoxy-3′-(3-fluorophenyltriazolyl)-3′-deoxy-1-thio-β-D-digalactopyranoside]?
Answer: Estimated organ dose, ED Cont. (target organ Ovaries): 1.20 mSv per 370 MBq dose or 10 mCi; Estimated organ dose, EDE Cont. (target organ Ovaries): 1.50 mSv per 370 MBq dose or 10 mCi; Estimated organ dose, Photon (target organ Ovaries): 4.32 mSv per 370 MBq dose or 10 mCi; Estimated organ dose, Total (target organ Ovaries): 6.02 mSv per 370 MBq dose or 10 mCi; Estimated organ dose, Alpha (target organ Pancreas): 0 mSv per 370 MBq dose or 10 mCi; Estimated organ dose, Beta (target organ Pancreas): 1.70 mSv per 370 MBq dose or 10 mCi; Estimated organ dose, ED Cont. (target organ Pancreas): 0.03 mSv per 370 MBq dose or 10 mCi; Estimated organ dose, EDE Cont. (target organ Pancreas): 0.35 mSv per 370 MBq dose or 10 mCi; Estimated organ dose, Photon (target organ Pancreas): 4.2 mSv per 370 MBq dose or 10 mCi; Estimated organ dose, Total (target organ Pancreas): 5.90 mSv per 370 MBq dose or 10 mCi; Estimated organ dose, Alpha (target organ Red Marrow): 0 mSv per 370 MBq dose or 10 mCi; Estimated organ dose, Beta (target organ Red Marrow): 1.21 mSv per 370 MBq dose or 10 mCi; Estimated organ dose, ED Cont. (target organ Red Marrow): 0.51 mSv per 370 MBq dose or 10 mCi; Estimated organ dose, EDE Cont. (target organ Red Marrow): 0.51 mSv per 370 MBq dose or 10 mCi; Estimated organ dose, Photon (target organ Red Marrow): 3.03 mSv per 370 MBq dose or 10 mCi; Estimated organ dose, Total (target organ Red Marrow): 4.24 mSv per 370 MBq dose or 10 mCi; Estimated organ dose, Alpha (target organ Skin): 0 mSv per 370 MBq dose or 10 mCi; Estimated organ dose, Beta (target organ Skin): 1.70 mSv per 370 MBq dose or 10 mCi; Estimated organ dose, ED Cont. (target organ Skin): 0.03 mSv per 370 MBq dose or 10 mCi; Estimated organ dose, EDE Cont. (target organ Skin): 0.00 mSv per 370 MBq dose or 10 mCi; Estimated organ dose, Photon (target organ Skin): 1.76 mSv per 370 MBq dose or 10 mCi; Estimated organ dose, Total (target organ Skin): 3.46 mSv per 370 MBq dose or 10 mCi; Estimated organ dose, Alpha (target organ Small Intestine): 0 mSv per 370 MBq dose or 10 mCi; Estimated organ dose, Beta (target organ Small Intestine): 4.15 mSv per 370 MBq dose or 10 mCi; Estimated organ dose, ED Cont. (target organ Small Intestine): 0.04 mSv per 370 MBq dose or 10 mCi; Estimated organ dose, EDE Cont. (target organ Small Intestine): 0.50 mSv per 370 MBq dose or 10 mCi; Estimated organ dose, Photon (target organ Small Intestine): 4.21 mSv per 370 MBq dose or 10 mCi; Estimated organ dose, Total (target organ Small Intestine): 8.36 mSv per 370 MBq dose or 10 mCi; Estimated organ dose, Alpha (target organ Spleen): 0 mSv per 370 MBq dose or 10 mCi; Estimated organ dose, Beta (target organ Spleen): 1.70 mSv per 370 MBq dose or 10 mCi; Estimated organ dose, ED Cont. (target organ Spleen): 0.03 mSv per 370 MBq dose or 10 mCi; Estimated organ dose, EDE Cont. (target organ Spleen): 0.00 mSv per 370 MBq dose or 10 mCi; Estimated organ dose, Photon (target organ Spleen): 3.52 mSv per 370 MBq dose or 10 mCi; Estimated organ dose, Total (target organ Spleen): 5.22 mSv per 370 MBq dose or 10 mCi; Estimated organ dose, Alpha (target organ Stomach Wall): 0 mSv per 370 MBq dose or 10 mCi; Estimated organ dose, Beta (target organ Stomach Wall): 9.17 mSv per 370 MBq dose or 10 mCi; Estimated organ dose, ED Cont. (target organ Stomach Wall): 1.79 mSv per 370 MBq dose or 10 mCi; Estimated organ dose, EDE Cont. (target organ Stomach Wall): 0.90 mSv per 370 MBq dose or 10 mCi; Estimated organ dose, Photon (target organ Stomach Wall): 5.78 mSv per 370 MBq dose or 10 mCi; Estimated organ dose, Total (target organ Stomach Wall): 14.90 mSv per 370 MBq dose or 10 mCi; Estimated organ dose, Alpha (target organ Testes): 0 mSv per 370 MBq dose or 10 mCi; Estimated organ dose, Beta (target organ Testes): 1.70 mSv per 370 MBq dose or 10 mCi; Estimated organ dose, ED Cont. (target organ Testes): 0.00 mSv per 370 MBq dose or 10 mCi; Estimated organ dose, EDE Cont. (target organ Testes): 0.00 mSv per 370 MBq dose or 10 mCi; Estimated organ dose, Photon (target organ Testes): 2.67 mSv per 370 MBq dose or 10 mCi; Estimated organ dose, Total (target organ Testes): 4.37 mSv per 370 MBq dose or 10 mCi; Estimated organ dose, Alpha (target organ Thymus): 0 mSv per 370 MBq dose or 10 mCi; Estimated organ dose, Beta (target organ Thymus): 1.70 mSv per 370 MBq dose or 10 mCi; Estimated organ dose, ED Cont. (target organ Thymus): 0.02 mSv per 370 MBq dose or 10 mCi; Estimated organ dose, EDE Cont. (target organ Thymus): 0.00 mSv per 370 MBq dose or 10 mCi; Estimated organ dose, Photon (target organ Thymus): 2.63 mSv per 370 MBq dose or 10 mCi; Estimated organ dose, Total (target organ Thymus): 4.33 mSv per 370 MBq dose or 10 mCi; Estimated organ dose, Alpha (target organ Thyroid): 0 mSv per 370 MBq dose or 10 mCi; Estimated organ dose, Beta (target organ Thyroid): 1.70 mSv per 370 MBq dose or 10 mCi; Estimated organ dose, ED Cont. (target organ Thyroid): 0.22 mSv per 370 MBq dose or 10 mCi; Estimated organ dose, EDE Cont. (target organ Thyroid): 0.13 mSv per 370 MBq dose or 10 mCi; Estimated organ dose, Photon (target organ Thyroid): 2.78 mSv per 370 MBq dose or 10 mCi; Estimated organ dose, Total (target organ Thyroid): 4.48 mSv per 370 MBq dose or 10 mCi; Estimated organ dose, Alpha (target organ ULI Wall): 0 mSv per 370 MBq dose or 10 mCi; Estimated organ dose, Beta (target organ ULI Wall): 1.70 mSv per 370 MBq dose or 10 mCi; Estimated organ dose, ED Cont. (target organ ULI Wall): 0.03 mSv per 370 MBq dose or 10 mCi; Estimated organ dose, EDE Cont. (target organ ULI Wall): 0.00 mSv per 370 MBq dose or 10 mCi; Estimated organ dose, Photon (target organ ULI Wall): 4.02 mSv per 370 MBq dose or 10 mCi; Estimated organ dose, Total (target organ ULI Wall): 5.71 mSv per 370 MBq dose or 10 mCi; Estimated organ dose, Alpha [1]: 0 mSv per 370 MBq dose or 10 mCi; Estimated organ dose, Beta [1]: 1.70 mSv per 370 MBq dose or 10 mCi; Estimated organ dose, ED Cont. [1]: 0.27 mSv per 370 MBq dose or 10 mCi; Estimated organ dose, EDE Cont. [1]: 0.00 mSv per 370 MBq dose or 10 mCi; Estimated organ dose, Photon [1]: 3.63 mSv per 370 MBq dose or 10 mCi; Estimated organ dose, Total [1]: 5.33 mSv per 370 MBq dose or 10 mCi; Estimated organ dose, Alpha (target organ Uterus): 0 mSv per 370 MBq dose or 10 mCi; Estimated organ dose, Beta (target organ Uterus): 1.70 mSv per 370 MBq dose or 10 mCi; Estimated organ dose, ED Cont. (target organ Uterus): 0.03 mSv per 370 MBq dose or 10 mCi; Estimated organ dose, EDE Cont. (target organ Uterus): 0.35 mSv per 370 MBq dose or 10 mCi; Estimated organ dose, Photon (target organ Uterus): 4.06 mSv per 370 MBq dose or 10 mCi; Estimated organ dose, Total (target organ Uterus): 5.76 mSv per 370 MBq dose or 10 mCi
